Measurements: patent US20110076236A1, “COMPOSITIONS AND METHODS OF TREATMENT USING MODULATORS OF MOTONEURON DISEASES” (Kinemed, Inc., priority 2008, published 2011)
“Also recorded” adds a separate entry of the source.

What was measured:
SOD1-G93A TGN mice = experiment: Clinical assessment (gait/stride length, onset, end stage) of SOD1-G93A TGN mice treated from presymptomatic stage; format: in vivo, mouse; conditions: treatment from 7 weeks; for Mortality: age at death; for Onset of Motor Deficits: age at onset
Method: FIG. 6. Noscapine-MK801 combination delays onset of disease and death in SOD1-G93A TGN mice. The one and two-drug treatments were started at an early (i.e., presymptomatic) stage of disease (7 weeks). […] Mice received noscapine intraperitoneally and MK-801 in drinking water.
Female SOD-1 G93A TGN mice were obtained from Jackson laboratory (strain #2726). The controls were matched litter mates. Treatment groups were three per group. Noscapine was injected intraperitoneal in the thigh 3 times/week (0.2 mg/kg i.p.) and MK801 was administered continuously in drinking water (12 mg/kg/d). Gait analysis was done by the method of Wooley et al., Muscle Nerve 2005 32(1):43-50 and Carter et al. J. Neurosci., 19(8):3248-3257, hereby incorporated by reference in their entirety.
For clinical assessment endpoints scoring was selected as follows:
GROUP CLASSIFICATION: Presymptomatic
Clinical signs: Full mobility and no observable difference in behavior from age-matched controls (Gait or stride length analysis).
GROUP CLASSIFICATION: Onset
Clinical signs: Abnormal Gait or stride length analysis and hindlimb weakness: >40% reduction in stride length vs. age-matched littermates.
GROUP CLASSIFICATION: End Stage (euthanization)
Clinical signs: noticeable and complete hind limb paralysis (which in this strain occurs more on one limb than the other) and inability to right themselves in 5 sec time window. This stage starts usually as the mice are failing the gait analysis test and enter the End stage. Therefore, Transgenic SOD1-G93A TGN mice are euthanized at the onset of noticeable and complete hindlimb paralysis and inability to right themselves in 5 sec time window.

[1] = tested on: MT-mediated fast axonal transport; experiment: MT-mediated fast axonal transport of 2H-label neuregulin-1 and chromogranin-B synaptic vesicle cargo (CSF secretion, spinal cord retention); format: in vivo, mouse; conditions: 13 weeks SOD1 G93A mice; 3 weeks treatment, 100 mg/kg/d and 200 mg/kg/d
Method: After 3 weeks of treatment with MTMA noscapine (100 mg/kg/d and 200 mg/kg/d) an intraperitoneal pulse dose of 30-35 ml/kg ^2H2O CSF was given and CSF as well as spinal cord lumbar region were collected from 13 weeks wild type (WT) and symptomatic SOD1 G93A mice at 24, 48 and 72 h, respectively. CSF secretion rates and neuronal kinetic of retention of ^2H-label neuregulin-1 [NeuR-1] or ^2H-label chromogranin-B [Chr-B] containing synaptic vesicles were measured as described above (FIGS. 23 and 24). […] Neuroprotective actions of agents are evaluated by comparing their ability to normalize the time course, extent or pattern of appearance of labeled secreted synaptic vesicle “cargo” molecules in the body fluid or tissue sampled
As detailed in FIG. 25 (A) transgenic SOD G93A mice (representing an animal model of ALS), are given heavy water (^2H2O), to label secreted molecules in motor neurons (n=30 mice total). […] Protein-derived amino acids were derivatized to pentafluorobenzyl derivatives, and ^2H incorporation in alanine released from neuregulin-1 were measured by GC/MS. […] Protein-derived amino acids are derivatized to pentafluorobenzyl derivatives, and ^2H incorporation from ^2H2O into derivatized-alanine is measured by GC/MS, as described in detail elsewhere [Fanara, P. et al. In vivo measurement of microtubule dynamics using stable isotope labeling with heavy water. […]

[2] = in vivo; cited from earlier work

Row | Compound | Mortality (SOD1-G93A TGN mice) | Onset of Motor Deficits (SOD1-G93A TGN mice) | fast axonal transport of 2H-label neuregulin-1 and chromogranin-B containing synaptic vesicles [1] | blood brain barrier penetration [2] | half-life in CNS tissue (brain and spinal cord) and PNS [2]
1 | C[C@]12N[C@H](Cc3ccccc31)c1ccccc12 [MK-801, Dizocilipine] | 112 to 119 days | 105 to 112 days |  |  | 
2 | COc1ccc2c(c1OC)C(=O)O[C@@H]2[C@H]1c2c(cc3c(c2OC)OCO3)CCN1C [Noscapine, noscapine] | 112 to 119 days | 98 to 105 days | normalized MT-mediated fast axonal transport rates; also recorded: improves this delayed fast axonal transport | penetrates the blood brain barrier | long half-life
